Experiments:
AS-30D hepatoma cells = assay: Killing of AS-30D hepatoma cells (trypan blue); type: cell-based, rat; conditions: 5 mM, 12 h
Experimental: AS-30D hepatoma cells grown in the peritoneal cavity of Sprague Dawley female rats (see Materials) were adapted to grow in tissue culture in Dulbecco's modified Eagle's medium containing 10% fetal bovine serum. Cells were maintained at 37° C. in a humidified atmosphere containing 5% CO2, and counted in a Neubauer chamber after trypan blue dye addition (cell/dye volume=1/1) by visualization under a Nikon inverted microscope.
The studies described above using the VX2 tumor model for liver cancer predict that 2DOG and 3BrPA may have the capacity to kill hepatoma cells expressing the high glycolytic/high hexokinase phenotype. […] Cell killing was assessed in these experiments by counting those cells in which trypan blue had entered.

VX2 tumor = assay: PET/CT imaging and histopathology after 1-hour intraarterial infusion; type: in vivo, rabbit
Experimental: To further confirm the tumor destruction using 3-bromopyruvate, Positron Emission Tomography (PET)/CT imaging was conducted in rabbits before and after a single 1-hour intraarterial (infusion) therapy with 3-bromopyruvate. […] Since 3-bromopyruvate acts extremely quickly, PET/CT images were obtained within 2 hours of therapy to examine the process of making a decision regarding immediate re-treatment. After the PET/CT images were obtained, the 2 rabbits were sacrificed, their liver explanted and submitted for histopathologic analysis. Various staining methods that the tumor was completely (100%) dead and that the mechanism of cell death was apoptotic, thus confirming the use of PET imaging in assessing tumor response.

[1] = test system: liver implanted VX2 tumors; assay: Systemic delivery via marginal ear vein, animals with liver implanted VX2 tumors; type: in vivo, rabbit; conditions: 25 ml, 0.5 mM via marginal ear vein
Source text: Finally, it was important to examine the effect of 3-BrPA when delivered systemically (i.e., via the general circulation) on both animal toxicity and its capacity to damage liver implanted tumors.

[2] = test system: back adipose tissue (BAT); assay: FDG uptake after IP injection in non-tumor bearing rats; type: in vivo, rat
Source text: After having established the anti-glycolytic effect of 3-bromopyruvate in vitro, we designed a series of experiments to confirm this property in vivo. For this purpose, two different animal models, the Lewis rat mammary tumor model and the orthotopic VX2 rabbit liver cancer model were used. Since glucose uptake can be monitored using fluorine-labeled deoxyglucose (FDG), potential sites of decreased FDG uptake as a result of 3-bromopyruvate activity could be identified. The effects of intraperitonealy (IP) injected 3-bromopyruvate in non-tumor bearing rats were compared to those in tumor bearing rats. The tumors were derived from the rat mammary tumor (RMT) cell line and transplanted into the back adipose tissue of the rat and allowed to grow for 10 days. After having determined the maximum tolerated dose, all animals received two bolus doses (one hour apart) of 3-bromopyruvate injected IP. The FDG was injected 30 minutes after the first injection of 3-bromopyruvate and all animals were sacrificed 60 minutes after the FDG was injected. The tumors and all major organs were removed, weighed and analyzed in a gamma counter. […]

[3] = Survival analysis, treatment versus control group (Kaplan-Meier); type: in vivo, rabbit; conditions: 11 animals, control 18.6 days
Source text: FIG. 9 is a graph showing survival of untreated (control) versus 3-bromopyruvate treated animals.
The control group consisted of 10 animals and the treatment group consisted of 11 animals. The Kaplan-Meier method was used to estimate survival curves. […] The mean survival time in the control group is 18.6 days as compared to the treatment group, with 50.0 days.

THLE-2 = assay: Cell viability, THLE-2; type: cell-based; conditions: 1 mM for 3 hour
Experimental: Caspase-3 activity and reduced cell viability was also measured in cell lines (HepG2, THLE-2, and VX2 cell lines) following 3-bromopyruvate treatment (1 mM for 3 hour) (FIG. 6A). Caspase-3 activity increased in each cell line following treatment and cell viability decreased following treatment. An increase in caspase-3 activity indicated the mechanism of cell death is apoptotic. FIGS. 6 B and C show cell viability is reduced in each cell line with increasing 3-bromopyruvate concentration after 1 and 3 hours of treatment.

O=C(O)C(=O)CBr [3-bromopyruvate]
cell killing (AS-30D hepatoma cells): all cells
tumor activity on post-treatment PET/CT scans (VX2 tumor; 2 hours after single 1-hour intraarterial infusion): complete disappearance of tumor activity
tumor death by histopathology (VX2 tumor; after single 1-hour intraarterial infusion): 100%
mechanism of cell death (VX2 tumor; histopathologic staining): apoptotic
animal behavior [1]: normal behavior
effect on liver implanted VX2 tumors [1]: no killing effect
histological examination of 9 major tissues ([1]; 4 days): no obvious damage
FDG uptake in other organs ([2]; two IP bolus doses): affected no other organs
decrease in FDG uptake (percentage of injected dose per gram of tissue) in back adipose tissue ([2]; two IP bolus doses one hour apart): 10 fold
mean survival time [3]: 50.0 days
cell viability (THLE-2): decreased

Reference: patent US20100203110A1, “Therapeutics for Cancer Using 3-Bromopyruvate and Other Selective Inhibitors of ATP Production” (The Johns Hopkins University, priority 2006, published 2010)
